Laboratory results: publication PMC9774438, “Effects of Synthetic Short Cationic Antimicrobial Peptides on the Catalytic Activity of Myeloperoxidase, Reducing Its Oxidative Capacity” (Antioxidants, 2022)
“Also recorded” adds a separate entry of the source. Where two headings read alike, the source gives them in different places.

Tests used:
MPO = conditions: ref [31]; cited from earlier work
Text: The positively charged character of arginine played a key role, since substitu ...

MPO active site = conditions: computational docking; ref [31]; cited from earlier work
Text: To react with MPO, a peptide residue has to closely approach to the active site. The active site heme group of MPO is located in a crevice (~15 Å in depth) with a channel (~10 Å in diameter) which opens into the distal cavity. Only H2O2 and small anions have ready access to the iron atom. Other compounds that are oxidized by MPO via the peroxidase cycle bind in the binding site at the entrance to the distal cavity. […] Despite concerns rais ...

myeloperoxidase (MPO) [1] = molecular target: T1, myeloperoxidase (MPO) (Homo sapiens, UniProt P05164); experiment: MPO heme absorbance spectra (Compound II formation and decay, MPO turnover); type: biochemical; conditions: 2 μM MPO heme, 100 μM H2O2, 10 mM Na-phosphate pH 7.4; all concentrations
T1 construct: Native myeloperoxidase (MPO) was obtained from human leukocyte extract by successive chromatography on heparin-Sepharose and phenyl-agarose; from tissue; host or cells: human leukocyte extract
Method: Native myeloperoxidase (MPO) was obtained from human leukocyte extract by successive chromatography on heparin-Sepharose and phenyl-agarose followed by gel-filtration on a Sephacryl S-200 HR, as previously described. The Reinheit Zahl value (A430 nm/A280 nm) for the purified protein was 0.85. The MPO concentration was determined as the heme concentration measured spectrophotometrically at 430 nm with a molar extinction coefficient of 91,000 M^−1 cm^−1 [35].
Spectra of MPO were recorded on a Cary 50 Bio UV-Vis spectrophotometer (Varian, Mulgrave, Australia). Experiments were performed with Eppendorf UVette plastic UV/Vis cuvettes (Hamburg, Germany). An MPO concentration was 2 μM heme. MPO was mixed with CAMP in 10 mM Na-phosphate buffer (pH 7.4) supplemented with 0.2 mM DTPA. H2O2 was added as a microvolume of concentrated solution (100 μM final).
To elucidate the influence of CAMPs on MPO catalytic activity, we analyzed absorbance spectral changes for MPO activated by H2O2 in the presence of peptides. The spectra were obtained with 2 μM MPO heme and 100 μM H2O2 in 10 mM Na-phosphate buffer, pH 7.4. All reactions in these and further experiments were performed in buffers supplemented with 0.2 mM diethylenetriaminepentaacetic acid (DTPA) to sequester free transition metal ions to prevent tyrosine and cysteine autooxidation.
Figure 2 Time courses of spectral absorbance changes at 430 nm (indicative of MPO ground state) and 455 nm (indicative of Compound II) in the absence and presence of cationic antimicrobial peptides (CAMPs) in the system MPO/H2O2. The name of CAMP is given in parentheses after the panel designation (A–D). H2O2 (100 µM) was added to MPO (2 µM heme) or MPO preincubated with peptides at different peptide/heme molar ratios for 5 min in 10 mM Na-phosphate buffer, pH 7.4. Spectra were taken before and 0.25 min, 5 min, 10 min, and so on after adding H2O2. The initial absorbance values (before H2O2 addition) are shown as a red square marker. […]

myeloperoxidase (MPO) [2] = molecular target: T1, myeloperoxidase (MPO); experiment: MPO peroxidase activity (Amplex Red assay); type: biochemical; conditions: 0.8–50 μM peptide, 8 nM MPO heme, 50 μM Amplex Red, 25 μM H2O2, 50 mM K-phosphate pH 7.4
Method: MPO peroxidase activity was evaluated fluorometrically using Amplex Red^TM reagent which was oxidized by MPO to the fluorescent resorufin (λex = 530 nm, λem = 590 nm). The assay was performed in 96-plate format. The final reaction mixture in 50 mM K-phosphate buffer (pH 7.4) was as follows: MPO, 8 nM heme; peptide, […]; H2O2, 25 μM; Amplex Red reagent, 50 μM. MPO was preincubated with peptides for 5 min in a volume of 100 μl. Then, Amplex Red was added, and the enzymatic reaction was initiated by adding H2O2 (a final probe volume of 200 μL per well). The fluorescence measurement was made with a CLARIOstar multimodal plate reader (BMG Labtech, Ortenberg, Germany) at 5 min after the beginning of the reaction. To determine the type of CAMP-induced inhibition, KM and Vmax were obtained by varying substrates of MPO: Amplex Red in a final concentration from 1 to 62.5 μM, or H2O2 in a final concentration from 0.625 to 20 μM.
(§1) The Hannes-Wolf plots were made as ([Substrate]/V = f([Substrate]). KM was equal in magnitude to the intercept made on the abscissa axis by the approximating straight line; Vmax was calculated as a reciprocal value of the straight-line slope. The inhibition constant (Ki) for noncompetitive inhibition was calculated as follows: Ki = [I]/((Vmax − Vmax’)/Vmax’); Ki for competitive inhibition was calculated as follows: Ki = [I]/((KM’ − KM)/KM); Ki for mixed inhibition was calculated as follows: Ki = [I]/(((KM’ − KM)/KM)^2 + ((Vmax − Vmax’)/Vmax’))^2)^0.5; and Ki for uncompetitive inhibition was calculated as follows: Ki = [I]/(((KM − KM’)/KM’)^2 + ((Vmax – Vmax’)/Vmax’))^2)^0.5, where [I]—concentration of inhibitor (CAMP), KM—Michaelis constant without inhibitor, Vmax—maximal rate without inhibitor, KM’—Michaelis constant in the presence of inhibitor, Vmax’—maximal rate in the presence of inhibitor.
From the experiments with varying concentrations of H2O2 (0.01–200 μM) and Amplex Red (6.25–100 μM), the optimal concentrations of 25 μM H2O2 and 50 μM Amplex Red were chosen for further work. The 0.8–50 μM concentration range (corresponding to 100–6250 peptide molecules per heme) was used to determine the concentration dependence of the effect of CAMPs on peroxidase activity of MPO.

myeloperoxidase (MPO) [3] = molecular target: T1, myeloperoxidase (MPO); experiment: MPO chlorinating activity (Celestine Blue B assay); type: biochemical; conditions: 0.008–8 μM peptide, 0.8 nM MPO heme, 200 μM CB, 150 mM NaCl, 50 μM H2O2, 50 mM Na-acetate pH 5.5
Method: MPO chlorinating activity was evaluated fluorometrically using Celestine Blue B (CB) which was oxidized to fluorescent glycol (λex = 487 nm, λem = 578 nm) by taurine N-chloramine produced in the reaction of taurine with HOCl generated by MPO [39]. The assay was performed in 96-plate format. MPO was preincubated with peptides for 5 min in a volume of 100 μL, with the concentrations being: MPO, 1.6 nM heme and peptide, 16 nM–16 μM. Then, 100 μL aliquots of CB-containing mix (CB, 400 µM; H2O2, 100 µM; taurine, 4 mM; KI, 10 µM; NaCl, 300 mM; 50 mM Na-acetate buffer, pH 5.5) were added to MPO/peptide and to 100 μL of HOCl standards (0–150 μM). The fluorescence measurement was made with a CLARIOstar multimodal plate reader (BMG Labtech, Ortenberg, Germany) at 15 min after the reaction started. Fluorescence intensity detected for HOCl standards of HOCl was used for calculating the chlorinating activity as mole of HOCl per mole of MPO heme per second. To determine the type of CAMP-induced inhibition, KM and Vmax were obtained by varying substrates of MPO: NaCl in a final concentration from 25 to 300 mM, or H2O2 in a final concentration from 5 to 80 µM.
as §1
Chlorinating activity is a distinctive feature of MPO as compared with other peroxidases and it is an important property, enabling MPO to combat microbes. We tested whether the inhibitory effects of pept_1545 and Hm-AMP8 on peroxidase activity extend to MPO chlorinating activity. Chlorinating activity was measured using a fluorometric CB-based assay. To determine the concentration dependence of the effect of CAMPs on MPO chlorinating activity, the 0.008–8 μM concentration range (corresponding to 10–10,000 peptide molecules per heme) was used.

erythrocytes = conditions: PBS, 1 h, 37 °C, Triton X-100 = 100%
Method: Comparative evaluation of hemolytic activity of the cationic antimicrobial peptides (CAMPs) Hm-
AMP8, pept_1545, Hm-AMP1, and Hm-AMP2 using a hemolysis assay measuring hemoglobin released from
damaged cells. In each group of bars, the final peptide concentration from left to right is 12.5 μM, 25 μM, 50
μM, and 100 μM. For melittin, the left bar – 0.5 μM, and the right bar – 1 μM. A working erythrocyte suspension
(in PBS) was prepared so that its ten -fold dilution gave an optical density of 0.4 at 800 nm (about 30 × 10^6 cells/mL).
Erythrocytes (125 μL) were added to the same volume of PBS containing the peptide. Cells with PBS served as
negative control; cells with Triton X-100 served as positive control wh ich was set to 100%. After 1-h incubation
(with slight shaking) at 37 °C, the samples were centrifuged at 1000 × g for 10 min , the supernatant was
transferred to the wells of a microplate, and the absorbance of hemoglobin was measured by a Multiskan Ascent
plate reader (Thermo Electron Corporation, Vantaa, Finland), with a test wavelength of 414 nm and a
background wavelength of 690 nm. The hemolysis percentage was calculated using the following equation:
Hemolysis (%) = {(sample absorbance – negative control) / (positive control – negative control)} × 100. Data
shown are mean ± SD from three independent experiments using blood from three healthy volunteers, with […]

T1 sequence (P05164 279-745 limits assumed): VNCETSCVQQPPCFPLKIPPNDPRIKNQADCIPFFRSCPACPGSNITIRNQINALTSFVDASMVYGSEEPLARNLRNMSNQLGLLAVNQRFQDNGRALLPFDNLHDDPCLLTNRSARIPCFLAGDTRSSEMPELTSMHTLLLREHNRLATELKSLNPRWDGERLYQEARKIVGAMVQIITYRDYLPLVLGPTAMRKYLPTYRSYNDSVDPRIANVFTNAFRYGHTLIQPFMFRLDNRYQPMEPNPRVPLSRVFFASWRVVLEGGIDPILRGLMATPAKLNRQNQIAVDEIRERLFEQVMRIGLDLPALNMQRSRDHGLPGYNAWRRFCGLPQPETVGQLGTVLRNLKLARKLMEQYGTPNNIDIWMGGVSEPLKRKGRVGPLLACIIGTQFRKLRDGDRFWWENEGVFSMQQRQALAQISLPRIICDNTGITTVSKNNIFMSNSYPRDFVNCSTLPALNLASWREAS
T1 sequence (P05164 165-273 limits assumed): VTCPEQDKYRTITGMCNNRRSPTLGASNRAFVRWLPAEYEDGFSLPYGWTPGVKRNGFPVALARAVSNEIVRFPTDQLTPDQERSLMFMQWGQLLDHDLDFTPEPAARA

Substance: GRRRRSVQWCA [antimicrobial peptide …, human lactoferrin-derived]
- inhibition of MPO (MPO): inhibiting MPO activity
- binding to MPO active site (docking) (MPO active site): binding of the peptide GRRRRSVQWCA to the edge of and within the cleft of the active site

Substance: RLKRFKRVALRREKTARNFRSIVS [Hm-AMP1]
- effect on H2O2-induced formation and decay of MPO Compound II / MPO turnover (summary) (myeloperoxidase (MPO) [1]): no significant effect on MPO cycling
- effect on MPO peroxidase activity (myeloperoxidase (MPO) [2]): no inhibition; also recorded: No effect
- effect on MPO chlorinating activity (myeloperoxidase (MPO) [3]): no significant effect

Substance: melittin
- Hemolysis (erythrocytes; 0.5 M (so in the source), three independent experiments): about 40%
- Hemolysis (erythrocytes; 1 M (so in the source)): complete hemolysis
